Calls of active or inactive are those of the source.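 The calls were made as follows: active = an EC50 below a set limit for the caspase 9 and 3 cleavage signal; inactive = the rest.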
Molecular target: Caspase-3 (Homo sapiens) + Caspase-9 (Homo sapiens) (UniProt P42574+P55211)
Assay: caspase-9/caspase-3 cascade activators, SAR follow-up, selectivity assay for Apaf-1 activator project, biochemical, fluorescence, LZ-caspase-9 mutant (AID 588576)
Settings: recombinant LZ-caspase-9/procaspase-3, DEVD-Rh110 fluorescence, 55 min

Caspase-3 (Homo sapiens) + Caspase-9 (Homo sapiens), sequence (P42574 whole entry, looked up): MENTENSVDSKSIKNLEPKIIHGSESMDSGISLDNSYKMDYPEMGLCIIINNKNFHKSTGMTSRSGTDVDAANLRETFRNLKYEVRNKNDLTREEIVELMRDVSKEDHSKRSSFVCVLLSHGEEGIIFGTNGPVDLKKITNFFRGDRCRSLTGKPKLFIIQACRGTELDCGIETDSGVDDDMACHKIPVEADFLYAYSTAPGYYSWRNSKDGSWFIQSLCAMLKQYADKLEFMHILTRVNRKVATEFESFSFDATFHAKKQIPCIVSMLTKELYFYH
Caspase-3 (Homo sapiens) + Caspase-9 (Homo sapiens), sequence (P55211 whole entry, looked up): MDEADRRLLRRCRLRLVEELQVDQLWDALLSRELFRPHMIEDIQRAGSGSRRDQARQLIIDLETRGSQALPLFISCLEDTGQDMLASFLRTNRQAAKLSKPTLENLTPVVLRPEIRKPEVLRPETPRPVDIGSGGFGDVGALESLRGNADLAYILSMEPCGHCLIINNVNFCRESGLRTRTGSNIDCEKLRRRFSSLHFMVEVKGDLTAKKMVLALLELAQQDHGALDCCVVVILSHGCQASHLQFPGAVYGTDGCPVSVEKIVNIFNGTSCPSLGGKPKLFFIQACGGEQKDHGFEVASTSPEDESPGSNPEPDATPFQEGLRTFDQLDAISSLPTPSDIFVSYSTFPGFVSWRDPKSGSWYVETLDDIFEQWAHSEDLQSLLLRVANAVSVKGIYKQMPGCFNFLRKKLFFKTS

Row | SMILES | EC50
1 | Cc1cc(C)c(O)c(N2CC(C(=O)O)CC2=O)c1 (configuration not stated) | > 100 µM (inactive)
2 | Cc1cc(C)n(C(C)CC(=O)Nc2cccnc2)n1 (configuration not stated) | > 100 µM (inactive)
3 | O=C(Nc1nc2ccsc2c(=O)s1)C1CCC1 | > 100 µM (inactive)
4 | O=C(Nc1nc2ccsc2c(=O)s1)c1cccs1 | > 100 µM (inactive)
5 | Cc1nn(CC(C)C(=O)O)c(C)c1Br (configuration not stated) | > 100 µM (inactive)
6 | O=C(c1ccco1)N1CCN(C(=O)C2CC(c3ccc(F)cc3)=NO2)CC1 (configuration not stated) | > 100 µM (inactive)
7 | O=C1CC2(CC(c3c(F)cccc3Cl)=NO2)C(=O)N1c1ccccc1 (configuration not stated) | > 100 µM (inactive)
8 | Cc1c(NC(=O)C2CC(c3ccc(F)cc3)=NO2)c(=O)n(-c2ccccc2)n1C (configuration not stated) | > 100 µM (inactive)
9 | Cc1cc(C)n(C(C)C(C)C(=O)O)n1 (configuration not stated) | > 100 µM (inactive)
10 | Cc1cc(NC(=O)C2CC(c3ccc(F)cc3)=NO2)n(-c2ccccc2)n1 (configuration not stated) | > 100 µM (inactive)
11 | CC(Cc1c[nH]c2ccccc12)C(=O)O (configuration not stated) | > 100 µM (inactive)

Next, values leading:

Row | EC50 | SMILES
12 | > 100 µM (inactive) | CCOc1ccccc1NC(=O)CCS(=O)(=O)c1ccc2c(c1)OCCO2
13 | > 100 µM (inactive) | Cc1nn(Cc2ccccc2)c(C)c1CCC(=O)O
14 | > 100 µM (inactive) | Cc1cc(C)n(CC(C)C(=O)Nc2ccc(Cl)c(Cl)c2)n1 (configuration not stated)
15 | > 100 µM (inactive) | O=C(Nc1nc2ccsc2c(=O)s1)c1ccco1
16 | > 100 µM (inactive) | O=C(O)C1CC(c2ccc(F)cc2)=NO1 (configuration not stated)
17 | > 100 µM (inactive) | O=C(Nc1ccc(F)cc1F)C1CC(c2ccc(F)cc2)=NO1 (configuration not stated)
